Test system: 168753-222-R-J1-PDC complex spheroid viability
Test: Anticancer human tumor 168753-222-R-J1-PDC patient-derived bladder carcinoma cell line growth inhibition [CLK]
Conditions: for IC50: curve of first compound; for viability, T/C: stronger effect = lower value
How it was run: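 Patient-derived tumor cells grown as complex spheroids with HUVEC endothelial cells and mesenchymal stem cells, treated with drug combinations. Concentrations descend in half-log steps from near clinical Cmax, or from 10 microM if Cmax unknown.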
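Further: viability measured after seven days of drug exposure.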
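Wherever viability, T/C is given: luminescence signal used as surrogate for viable cell amount; 100% = DMSO vehicle control wells.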

IC50 (second compound 0.0316 µM): 1620 nM
IC50 (second compound 0.1 µM): 1690 nM
IC50 (second compound 0.316 µM): 565 nM
IC50 (second compound 1 µM): < 31.6 nM
IC50 (second compound 3.16 µM): < 31.6 nM
IC50 (second compound 10 µM): < 31.6 nM
Structure (SMILES): COc1ccc([C@@H](O)c2cc(-c3ncnc4cc(N5CCOCC5)ccc34)c(F)cc2Cl)nn1 + CNC(=O)c1ccc(Nc2nc(OC3CCCC3)c3c(-c4ccc5nc(C)oc5c4)c[nH]c3n2)c(OC)c1
viability, T/C (second compound 0.0316 µM, first compound 0.0316 µM): 107%
viability, T/C (second compound 0.0316 µM, first compound 0.1 µM): 94%
viability, T/C (second compound 0.0316 µM, first compound 0.316 µM): 88.3%
viability, T/C (second compound 0.0316 µM, first compound 1 µM): 67.8%
viability, T/C (second compound 0.0316 µM, first compound 3.16 µM): 27%
viability, T/C (second compound 0.0316 µM, first compound 10 µM): 15.9%
viability, T/C (second compound 0.1 µM, first compound 0.0316 µM): 91.1%
viability, T/C (second compound 0.1 µM, first compound 0.1 µM): 94.5%
viability, T/C (second compound 0.1 µM, first compound 0.316 µM): 82.7%
viability, T/C (second compound 0.1 µM, first compound 1 µM): 69.4%
viability, T/C (second compound 0.1 µM, first compound 3.16 µM): 27.9%
viability, T/C (second compound 0.1 µM, first compound 10 µM): 16.8%
viability, T/C (second compound 0.316 µM, first compound 0.0316 µM): 75.6%
viability, T/C (second compound 0.316 µM, first compound 0.1 µM): 78.9%
viability, T/C (second compound 0.316 µM, first compound 0.316 µM): 67.3%
viability, T/C (second compound 0.316 µM, first compound 1 µM): 32.5%
viability, T/C (second compound 0.316 µM, first compound 3.16 µM): 20.7%
viability, T/C (second compound 0.316 µM, first compound 10 µM): 13.9%
viability, T/C (second compound 1 µM, first compound 0.0316 µM): 41.9%
viability, T/C (second compound 1 µM, first compound 0.1 µM): 27.2%
viability, T/C (second compound 1 µM, first compound 0.316 µM): 26.3%
viability, T/C (second compound 1 µM, first compound 1 µM): 18.4%
viability, T/C (second compound 1 µM, first compound 3.16 µM): 16.5%
viability, T/C (second compound 1 µM, first compound 10 µM): 13.5%
viability, T/C (second compound 3.16 µM, first compound 0.0316 µM): 25.3%
viability, T/C (second compound 3.16 µM, first compound 0.1 µM): 23.7%
viability, T/C (second compound 3.16 µM, first compound 0.316 µM): 21.1%
viability, T/C (second compound 3.16 µM, first compound 1 µM): 16.6%
viability, T/C (second compound 3.16 µM, first compound 3.16 µM): 17.8%
viability, T/C (second compound 3.16 µM, first compound 10 µM): 15.8%
viability, T/C (second compound 10 µM, first compound 0.0316 µM): 18.5%
viability, T/C (second compound 10 µM, first compound 0.1 µM): 21.5%
viability, T/C (second compound 10 µM, first compound 0.316 µM): 20.8%
viability, T/C (second compound 10 µM, first compound 1 µM): 15.9%
viability, T/C (second compound 10 µM, first compound 3.16 µM): 15.4%
viability, T/C (second compound 10 µM, first compound 10 µM): 11.3%
